Measurements from patent US9315494B2, “Alkyl-amide-substituted pyridyl compounds useful as modulators of IL-12, IL-23 and/or IFNα responses” (Bristol-Myers Squibb Company, priority 2012, dated 2016).
pIC50: −log10 of the molar value. Read-outs that look alike come from different tables or passages of the source.

How the values were obtained:
[1] = test system: IL-23-stimulated STAT-dependent luciferase reporter in Kit225 T cells; assay: Kit225 T cell assay, IL-23 stimulated STAT-dependent luciferase reporter; type: cell-based, human
Method: (§1) Kit225 T cells with a stably-integrated STAT-dependent luciferase reporter were plated in RPMI (Gibco) containing 10% heat-inactivated FBS (Gibco) and 100 U/mL PenStrep (Gibco). The cells were then stimulated with either 20 ng/mL human recombinant IL-23 or 200 U/mL human recombinant IFNα (PBL InterferonSource) for 5-6 hours. Luciferase expression was measured using the STEADY-GLO® Luciferase Assay System (Promega) according to the manufacturer's instructions.

[2] = test system: IFNα-stimulated STAT-dependent luciferase reporter in Kit225 T cells; assay: Kit225 T cell assay, IFNα stimulated STAT-dependent luciferase reporter; type: cell-based, human
Method: as §1

[3] = Kit225 T cells, 20 ng/mL human recombinant IL-23, 5-6 hours, luciferase, read-out: IL23 (Kit225 T Cell Inhibition Data)
[4] = Kit225 T cells, 200 U/mL human recombinant IFNα, 5-6 hours, luciferase, read-out: IFNα (Kit225 T Cell Inhibition Data)

SMILES	pIC50 [1, 3]	pIC50 [2, 4]	pIC50 ([1]; Homo sapiens, KIT225, read-out: IL23 (Kit225 T Cell Inhibition Data))	pIC50 ([2]; Homo sapiens, KIT225, read-out: IFNα (Kit225 T Cell Inhibition Data))
CNC(=O)c1cnc(Nc2ccccn2)cc1Nc1ccc(F)cc1OC [Example 147]	5.97	6.28	–	–
CNC(=O)c1cnc(Nc2cc(C)ccn2)cc1Nc1ccc(F)cc1OC [Example 148]	6.12	6.52	–	–
CNC(=O)c1cnc(Nc2cc(F)ccn2)cc1Nc1ccc(F)cc1OC [Example 149]	5.92	6.48	–	–
CNC(=O)c1cnc(Nc2cccc(-c3ccccc3)n2)cc1Nc1ccc(F)cc1OC [Example 150]	5.57	5.82	–	–
CNC(=O)c1cnc(Nc2ccc(F)cn2)cc1Nc1ccc(F)cc1OCF [Example 151]	5.94	6.62	–	–
CNC(=O)c1cnc(Nc2cc(Cl)ccn2)cc1Nc1ccc(F)cc1OC [Example 153]	5.87	6.01	–	–
CNC(=O)c1cnc(Nc2cccc(OC)n2)cc1Nc1ccc(F)cc1OC [Example 154]	6.11	6.25	–	–
CNC(=O)c1cnc(Nc2cc(C#N)ccn2)cc1Nc1ccc(F)cc1OC [Example 155]	6.56	6.72	–	–
CNC(=O)c1cnc(Nc2cccc(C(F)(F)F)n2)cc1Nc1ccc(F)cc1OC [Example 156]	5.78	6.14	–	–
CNC(=O)c1cnc(Nc2ccc(C(F)(F)F)cn2)cc1Nc1ccc(F)cc1OC [Example 157]	5.28	5.01	–	–
CNC(=O)c1cnc(Nc2ccc(Cl)cn2)cc1Nc1ccc(F)cc1OC [Example 158]	5.35	5.68	–	–
CNC(=O)c1cnc(Nc2ccc(C)cn2)cc1Nc1ccc(F)cc1OC [Example 159]	5.94	5.85	–	–
CNC(=O)c1cnc(Nc2ccc3[nH]ccc3n2)cc1Nc1ccc(F)cc1OC [Example 160]	5.91	5.97	–	–
CNC(=O)c1cnc(Nc2ccc(OC)cn2)cc1Nc1ccc(F)cc1OC [Example 161]	6.12	6.21	–	–
CNC(=O)c1cnc(Nc2ccc(C#N)cn2)cc1Nc1ccc(F)cc1OCF [Example 162]	6.67	6.34	–	–
CNC(=O)c1cnc(Nc2cc(C)c(C#N)c(C)n2)cc1Nc1ccc(F)cc1OC [Example 163]	6.51	6.64	–	–
CNC(=O)c1cnc(Nc2cccc(-n3ccccc3=O)n2)cc1Nc1cc(F)cc(F)c1OC [Example 164]	5.36	5.52	–	–
CNC(=O)c1cnc(Nc2cc(C#N)ccn2)cc1Nc1ccc(F)cc1OCF [Example 166]	6.80	7.05	–	–
CNC(=O)c1cnc(Nc2cc(-n3ccccc3=O)ccn2)cc1Nc1cc(F)cc(F)c1OC [Example 167]	6.29	6.51	–	–
CNC(=O)c1cnc(Nc2cc(-n3ccccc3=O)ccn2)cc1Nc1ccc(F)cc1OC [Example 168]	5.85	5.91	–	–
CNC(=O)c1cnc(Nc2cc(OC)ccn2)cc1Nc1cc(F)cc(F)c1OC [Example 169]	6.45	6.36	–	–
CNC(=O)c1cnc(Nc2cc(OC)ccn2)cc1Nc1ccc(F)cc1OC [Example 170]	5.79	5.76	–	–
CNC(=O)c1cnc(Nc2ccc(F)cn2)cc1Nc1cccc(F)c1OC [Example 171]	6.76	7.05	–	–

SMILES	pIC50 [1, 3]	pIC50 [2, 4]	pIC50 ([1]; Homo sapiens, KIT225, read-out: IL23 (Kit225 T Cell Inhibition Data))	pIC50 ([2]; Homo sapiens, KIT225, read-out: IFNα (Kit225 T Cell Inhibition Data))
CNC(=O)c1cnc(Nc2ccccn2)cc1Nc1cccc(F)c1OC [Example 172]	7.05	7.30	–	–
CNC(=O)c1cnc(Nc2cc(C#N)ccn2)cc1Nc1cccc(F)c1OC [Example 173]	7.09	7.30	–	–
CNC(=O)c1cnc(Nc2ccc(F)cn2)cc1Nc1cccc(C)c1C(N)=O [Example 174]	5.99	6.25	–	–
CNC(=O)c1cnc(Nc2ccc(F)cn2)cc1Nc1cccc(F)c1C(N)=O [Example 175]	6.36	6.30	–	–
CNC(=O)c1cnc(Nc2cnccn2)cc1Nc1ccccc1C(N)=O [Example 178]	5.79	5.73	–	–
CNC(=O)c1cnc(Nc2cc(C#N)ccn2)cc1Nc1cnccc1OC [Example 179]	5.56	5.49	–	–
CNC(=O)c1cnc(Nc2ccc3ccccc3n2)cc1Nc1ccccc1C(C)(C)O [Example 180]	5.29	5.59	–	–
CNC(=O)c1cnc(Nc2ccccn2)cc1Nc1ccccc1C(C)(C)O [Example 183]	5.01	5.22	–	–
CNC(=O)c1cnc(Nc2ccc(F)cn2)cc1Nc1ccccc1 [Example 184]	–	–	5.10	5.39
CNC(=O)c1cnc(Nc2ccc(F)cn2)cc1Nc1ccccc1C1CC1 [Example 185]	5.59	5.54	–	–
CNC(=O)c1cnc(Nc2ccc(F)cn2)cc1Nc1ccccc1-c1nnc[nH]1 [Example 186]	5.11	5.11	–	–
CNC(=O)c1cnc(Nc2ccc(F)cn2)cc1Nc1ccc(N2CCOCC2)cc1OC [Example 187]	5.55	5.59	–	–
CNC(=O)c1cnc(Nc2ccc(F)cn2)cc1Nc1ccccc1OC [Example 190]	6.44	6.29	–	–
CNC(=O)c1cnc(Nc2ccc(F)cn2)cc1Nc1ccc(CCO)cc1 [Example 191]	5.51	5.45	–	–
CNC(=O)c1cnc(Nc2ccc(F)cn2)cc1Nc1ccc(OC)cc1OC [Example 192]	6.25	6.27	–	–
CNC(=O)c1cnc(Nc2ccc(F)cn2)cc1Nc1ccc(C)cc1 [Example 193]	5.43	5.49	–	–
CNC(=O)c1cnc(Nc2ccc(F)cn2)cc1Nc1ccc(OC)cc1 [Example 195]	5.50	5.45	–	–
CNC(=O)c1cnc(Nc2ccc(F)cn2)cc1Nc1ccc(F)cc1 [Example 196]	5.36	5.16	–	–
CNC(=O)c1cnc(Nc2ccc(F)cn2)cc1Nc1cccc(C)c1 [Example 197]	4.93	5.23	–	–
CNC(=O)c1cnc(Nc2ccc(F)cn2)cc1Nc1ccc(C2CC2)cc1 [Example 198]	5.34	5.28	–	–
CNC(=O)c1cnc(Nc2ccc(F)cn2)cc1Nc1cc(F)ccc1OC [Example 199]	6.05	6.18	–	–
CNC(=O)c1cnc(Nc2ccc(F)cn2)cc1Nc1ccc(C(=O)N2CCCC2)cc1 [Example 200]	6.04	5.89	–	–
CNC(=O)c1cnc(Nc2ccc(F)cn2)cc1Nc1ccc(S(C)(=O)=O)cc1 [Example 201]	5.57	5.16	–	–

SMILES	pIC50 [1, 3]	pIC50 [2, 4]	pIC50 ([1]; Homo sapiens, KIT225, read-out: IL23 (Kit225 T Cell Inhibition Data))	pIC50 ([2]; Homo sapiens, KIT225, read-out: IFNα (Kit225 T Cell Inhibition Data))
CNC(=O)c1cnc(Nc2ccc(F)cn2)cc1Nc1ccc(F)c(F)c1 [Example 204]	5.03	5.09	–	–
CNC(=O)c1cnc(Nc2ccc(F)cn2)cc1Nc1ccc(F)cc1SC [Example 207]	5.48	5.69	–	–
CNC(=O)c1cnc(Nc2ccc(F)cn2)cc1Nc1ccccc1O [Example 208]	5.73	5.62	–	–
CNC(=O)c1cnc(Nc2ccc(F)cn2)cc1Nc1ccccc1OC(F)(F)F [Example 209]	5.80	5.88	–	–
CNC(=O)c1cnc(Nc2ccc(F)cn2)cc1Nc1ccccc1SC(F)(F)F [Example 210]	5.77	6.07	–	–
CNC(=O)c1cnc(Nc2ccc(F)cn2)cc1Nc1cccc2[nH]ccc12 [Example 212]	5.38	5.69	–	–
CCc1ccc(Nc2cc(Nc3ccc(N4CCOCC4)cn3)ncc2C(=O)NC)cc1 [Example 213]	5.73	5.88	–	–
CNC(=O)c1cnc(Nc2ccc(N3CCOCC3)cn2)cc1Nc1ccccc1F [Example 214]	5.53	5.70	–	–
CCc1cccc(Nc2cc(Nc3ccc(N4CCOCC4)cn3)ncc2C(=O)NC)c1 [Example 215]	5.31	5.36	–	–
CNC(=O)c1cnc(Nc2ccc(N3CCOCC3)cn2)cc1Nc1ccccc1OC [Example 216]	6.82	6.92	–	–
CNC(=O)c1cnc(Nc2ccc(N3CCOCC3)cn2)cc1Nc1ccc(F)cc1OC [Example 218]	6.10	6.59	–	–
CNC(=O)c1cnc(Nc2ccc(N3CCOCC3)cn2)cc1Nc1c(F)cccc1OC [Example 219]	5.29	5.55	–	–
CNC(=O)c1cnc(Nc2ccc(N3CCOCC3)cn2)cc1Nc1ccc(OC)cc1OC [Example 220]	6.31	6.68	–	–
CNC(=O)c1cnc(Nc2ccc(N3CCOCC3)cn2)cc1Nc1ccc(Br)cc1OC [Example 221]	6.34	6.82	–	–
CNC(=O)c1cnc(Nc2ccc(N3CCOCC3)cn2)cc1Nc1cc(S(C)(=O)=O)ccc1OC [Example 222]	5.09	5.08	–	–
CCOc1ccccc1Nc1cc(Nc2ccc(N3CCOCC3)cn2)ncc1C(=O)NC [Example 223]	6.41	6.72	–	–
CNC(=O)c1cnc(Nc2ccc(N3CCOCC3)cn2)cc1Nc1cccc2c1OCCO2 [Example 225]	6.80	7.05	–	–
CNC(=O)c1cnc(Nc2ccc(N3CCOCC3)cn2)cc1Nc1ccc(F)cc1O [Example 227]	5.34	5.49	–	–
CCOc1ccc(OCC)c(Nc2cc(Nc3ccc(N4CCOCC4)cn3)ncc2C(=O)NC)c1 [Example 229]	6.51	6.59	–	–
CCOc1c(F)cc(F)cc1Nc1cc(Nc2ccc(N3CCOCC3)cn2)ncc1C(=O)NC [Example 230]	6.65	6.80	–	–
CNC(=O)c1cnc(Nc2ccc(F)cn2)cc1Nc1ccccc1N [Example 231]	5.04	5.51	–	–
